Columns and labels:
[1] = sulfoxide formation in lipid solution; type: physicochemical; conditions: formulated in lipid solution, in the absence of antioxidant; compared with salt form, e.g. ABT-263 bis-HCl
[2] = test system: small-cell lung cancer (SCLC) and lymphoid malignancies; conditions: against SCLC and lymphoid malignancies; cited from earlier work
[3] = dissolution in a lipid carrier when preparing a liquid formulation; type: physicochemical; conditions: solution in a lipid carrier; compared with amorphous form

CC1(C)CCC(c2ccc(Cl)cc2)=C(CN2CCN(c3ccc(C(=O)NS(=O)(=O)c4ccc(N[C@H](CCN5CCOCC5)CSc5ccccc5)c(S(=O)(=O)C(F)(F)F)c4)cc3)CC2)C1 [ABT-263 free base, N-(4-(4-((2-(4-chlorophenyl)-5,5-dimethyl-1-cyclohex-1-en-1-yl)methyl)piperazin-1-yl)benzoyl)-4-(((1R)-3-(morpholin-4-yl)-1-((phenylsulfanyl)methyl)propyl)amino)-3-((trifluoromethyl)sulfonyl)benzenesulfonamide]
susceptibility to sulfoxide formation [1]: less susceptible to sulfoxide formation than ABT-263 in salt form

CN(C)CC[C@H](CSc1ccccc1)Nc1ccc(S(=O)(=O)NC(=O)c2ccc(N3CCN(Cc4ccccc4-c4ccc(Cl)cc4)CC3)cc2)cc1[N+](=O)[O-] [ABT-737, N-(4-(4-((4′-chloro-(1,1′-biphenyl)-2-yl)methyl)piperazin-1-yl)benzoyl)-4-(((1R)-3-(dimethylamino)-1-((phenylsulfanyl)methyl)propyl)amino)-3-nitrobenzene-sulfonamide]
single-agent activity [2]: single-agent activity

CC1(C)CCC(c2ccc(Cl)cc2)=C(CN2CCN(c3ccc(C(=O)NS(=O)(=O)c4ccc(N[C@H](CCN5CCOCC5)CSc5ccccc5)c(S(=O)(=O)C(F)(F)F)c4)cc3)CC2)C1 [crystalline ABT-263, N-(4-(4-((2-(4-chlorophenyl)-5,5-dimethyl-1-cyclohex-1-en-1-yl)methyl)piperazin-1-yl)benzoyl)-4-(((1R)-3-(morpholin-4-yl)-1-((phenylsulfanyl)methyl)propyl)amino)-3-((trifluoromethyl)sulfonyl)benzenesulfonamide]
dissolution behaviour [3]: dissolves faster and has less tendency to form a gel during dissolution
